From paper PMC3364162 (Journal of Medicinal Chemistry, 2012)

B1: Vitamin D receptor (protein)
chain: MEAMAASTSLPDPGDFDRNVPRICGVCGDRATGFHFNAMTCEGCKGFFRRSMKRKALFTCPFNGDCRITKDNRRHCQACRLKRCVDIGMMKEFILTDEEVQRKREMILKRKEEEALKDSLRPKLSEEQQRIIAILLDAHHKTYDPTYSDFCQFRPPVRVNDGGGSHPSRPNSRHTPSFSGDSSSSCSDHCITSSDMMDSSSFSNLDLSEEDSDDPSVTLELSQLSMLPHLADLVSYSIQKVIGFAKMIPGFRDLTSEDQIVLLKSSAIEVIMLRSNESFTMDDMSWTCGNQDYKYRVSDVTKAGHSLELIEPLIKFQVGLKKLNLHEEEHVLLMAICIVSPDRPGVQDAALIEAIQDRLSNTLQTYIRCRHPPPGSHLLYAKMIQKLADLRSLNEEHSKQYRCLSFQPECSMKLTPLVLEVFGNEIS

Target: T1, SRC2-2 coactivator peptide SRC2-2 (Homo sapiens, UniProt Q15596)
T1 chain: KHKILHRLLQDSS
Assay: not given
Conditions: not given

Kd | Molecule
1.7 µM | B1

Tested on: HEK293T cells
Assay: Toxicity by CellTiter-Glo
Assay type: cell-based, human
Conditions: Conc. 62.5 μM

Molecule | Toxicity (%)
COc1ccc(C(Nc2ccccn2)c2c(C)[nH]c3ccccc23)cc1 (stereo not shown) [compound 11] | 100%
Cc1ccc(C(Nc2ccccn2)c2c(C)[nH]c3ccccc23)cc1 (stereo not shown) [compound 12] | 90%
COc1cccc(C(Nc2ccccn2)c2c(C)[nH]c3ccccc23)c1 (stereo not shown) [compound 13] | 60%
Cc1[nH]c2ccccc2c1C(Nc1ccccn1)c1ccc(F)cc1 (stereo not shown) [compound 16] | 100%
Cc1[nH]c2ccccc2c1C(Nc1ccccn1)c1cccc(Cl)c1 (stereo not shown) [compound 18] | 100%
Cc1ccc(S(=O)(=O)ON2C(=O)c3ccccc3C2=O)cc1 [compound 20] | 50%
COc1ccc(OC)c(S(=O)(=O)ON2C(=O)c3ccccc3C2=O)c1 [compound 21] | 50%
Cc1c(C=O)c(C(=O)O)c(C)n1Cc1ccc(Cl)cc1 [compound 23] | 20%
COCC(=O)Oc1c(Sc2ccc(Cl)cc2)c(C)nn1-c1ccccc1 [compound 26] | 0%

Tested on: DU145 cells
Assay: Cytotoxicity in DU145 cells
Assay type: cell-based, human
Conditions: not given

Molecule | Concentration above which increased cytotoxicity was observed
Cc1[nH]c2ccccc2c1C(Nc1ccc(Cl)cc1)c1ccccc1Cl (stereo not shown) [31b] | higher than 20 μM

Tested on: not listed separately
Assay: in vitro
Conditions: PAMPA, pH 7.4

Papp | Molecule
0.148 ×10⁻⁶ cm/s | Cc1[nH]c2ccccc2c1C(Nc1ccccc1)c1ccc(CCCO)cc1 (stereo not shown) [30i]
0.0138 ×10⁻⁶ cm/s | COC(=O)c1ccc2c(c1)C(C)(C)C(/C=C/c1ccc(OC)cc1)=[N+]2C [compound 1]
0.282 ×10⁻⁶ cm/s | COc1ccc(/C=C/C2=[N+](C)c3ccc(OC)cc3C2(C)C)cc1 [compound 2]
0.00603 ×10⁻⁶ cm/s | CCOc1ccc(/C=C/C2=[N+](C)c3ccc(C(=O)OC)cc3C2(C)C)cc1 [compound 3]
0.0117 ×10⁻⁶ cm/s | COC(=O)c1ccc(/C=C/C2=[N+](C)c3ccc(OC)cc3C2(C)C)cc1 [compound 4]
0.02 ×10⁻⁶ cm/s | COC(=O)c1ccc2c(c1)C(C)(C)C(/C=C/c1ccc(O)cc1)=[N+]2C [compound 5]
0.251 ×10⁻⁶ cm/s | CCCS(=O)(=O)c1oc(-c2cccs2)nc1S(=O)(=O)c1ccc(F)cc1 [compound 7]
0.214 ×10⁻⁶ cm/s | CCS(=O)(=O)c1oc(-c2cccs2)nc1S(=O)(=O)c1ccccc1 [compound 8]
0.166 ×10⁻⁶ cm/s | CC(C)CS(=O)(=O)c1oc(-c2cccs2)nc1S(=O)(=O)c1ccc(F)cc1 [compound 9]
0.437 ×10⁻⁶ cm/s | CC(C)S(=O)(=O)c1oc(-c2cccs2)nc1S(=O)(=O)c1ccccc1 [compound 10]
0.00195 ×10⁻⁶ cm/s | Cc1ccc(S(=O)(=O)ON2C(=O)c3ccccc3C2=O)cc1 [compound 20]
0.0145 ×10⁻⁶ cm/s | COc1ccc(OC)c(S(=O)(=O)ON2C(=O)c3ccccc3C2=O)c1 [compound 21]
0.0148 ×10⁻⁶ cm/s | CCc1ccc(S(=O)(=O)ON2C(=O)c3ccccc3C2=O)cc1 [compound 22]
0.00525 ×10⁻⁶ cm/s | Cc1c(C=O)c(C(=O)O)c(C)n1Cc1ccc(Cl)cc1 [compound 23]
0.0331 ×10⁻⁶ cm/s | COCC(=O)Oc1c(Sc2ccc(Cl)cc2)c(C)nn1-c1ccccc1 [compound 26]
0.0525 ×10⁻⁶ cm/s | Nc1nc2ccc(S(=O)(=O)N3CCCCC3)cc2s1 [compound 27]
0.166 ×10⁻⁶ cm/s | CCCCNC(=O)Cn1sc2nc(C)cc(C)c2c1=O [compound 28]
1.12 ×10⁻⁶ cm/s | Cc1cccc(N2COc3ccc4ccccc4c3C2)c1 [compound 29]

Molecule | Papp
O=Cc1nc2ccccc2n1Cc1ccc2ccccc2c1 [compound 24] | 0.513 ×10⁻⁶ cm/s
O=Cc1nc2ccccc2n1Cc1ccc(Cl)cc1Cl [compound 25] | 0.302 ×10⁻⁶ cm/s
